Source: patent publication US5440016A, “Peptides of the formula (KFmoc) ZZZ and their uses” (priority 1993, dated 1995)
Converted amounts (≈) assume the structure as drawn. Read-outs that look alike come from different tables or passages of the source. Square brackets hold non-standard residues; d marks the D form. Peptide text beside a SMILES is read from it. * marks the point of attachment. Fmoc = O=C(OCC1c2ccccc2-c2ccccc21)*

Assays:
[1] = system: Escherichia coli ATCC 25922
Method: (§1) Escherichia coli ATCC 25922 and P. aeruginosa ATCC 27853 were used as Gram-negative (-) and Staphylococcus aureus ATCC 29213 as Gram-positive (+) bacteria. Bacteria were grown overnight at 37° C. in Mueller-Hinton (MH) broth. This culture was reinoculated and incubated at 37° C. to reach the exponential phase of bacteria growth, i.e., a final bacterial suspension containing 10^5 to 5×10^5 colony-forming units (CFU)/ml. The concentration of cells was established by plating 100 μl of different dilutions of the culture solution (e.g., 10^-2, 10^-3 and 10^-4) onto solid agar plates.
(§2) Following an overnight incubation at 37° C., the CFU thus formed were counted on each agar plate. In 96-well tissue culture plates, as control blanks, eight wells per plate contained only medium, while as a positive growth control, eight other wells contained medium plus cells.
(§3) The plates were incubated overnight at 37° C., and the optical density (OD) determined at 620 nm after different times of incubation.

[2] = system: Staphylococcus aureus ATCC 29213
Method: as §1, §2, §3

[3] = system: Streptococcus sanguis ATCC 10556
Method: Streptococcus sanguis ATCC 10556 (Gram-positive (+) bacteria present in tooth crevices) was grown overnight at 37° C. in Brain Heart Infusion (BHI) broth. This culture was reinoculated and incubated at 37° C. to reach the exponential phase of bacteria growth, i.e., a final bacterial suspension containing 10^5 to 5×10^5 colony-forming units (CFU)/ml. The concentration of cells was established by plating 100 μl of different dilutions of the culture solution (e.g., 10^-2, 10^-4) and 10^-4) onto solid agar plates. Following an overnight incubation at 37° C., the CFU thus formed were counted on each agar plate. In 96-well tissue culture plates, as control blanks, eight wells per plate contained only medium, while as a positive growth control, eight other wells contained medium plus cells. […] The plates were incubated overnight at 37° C., and the optical density (OD) determined at 620 nm after 20 to 24 hours incubation.

[4] = system: Candida albicans ATCC 10231
[5] = system: Human red blood cells (RBCs); experiment: Hemolytic activity; format: cell-based
[6] = Tables 2-5, concentration necessary to inhibit 50% growth
[7] = Tables 3-5, lower parts (unnatural amino acids)
[8] = Tables 7-9, lower parts (unnatural amino acids)
[9] = Tables 11-13, lower parts (unnatural amino acids)
[10] = Tables 15-17, lower parts (unnatural amino acids)

Compound | IC50 against E. coli [1, 6] | IC50 against S. aureus ([2]; Tables 6-9) | IC50 against S. sanguis ([3]; Tables 10-13) | IC50 against C. albicans ([4]; Tables 14-17) | HD50 (concentration necessary to lyse 50% of the cells) ([5]; Tables 18-21) | HD50 (concentration necessary to lyse 50% of the cells) ([5]; Table 20, lower part) | IC50 against E. coli [1, 7] | IC50 against S. aureus [2, 8] | IC50 against S. sanguis [3, 9] | IC50 against C. albicans [4, 10]
NCCCC[C@H](NC(=O)OCC1c2ccccc2-c2ccccc21)C(=O)N[C@@H](Cc1c[nH]c2ccccc12)C(=O)N[C@@H](CCCCN)C(=O)N[C@H](CC(N)=O)C(N)=O [(KFmoc)WKn-NH2] (Fmoc-KWK[dN]-NH2) | 47 µg/mL (≈ 59 µM) | 10 µg/mL (≈ 12.6 µM) | 8 µg/mL (≈ 10.1 µM) | 233 µg/mL (≈ 293 µM) | – | – | – | – | – | –
NCCCC[C@H](NC(=O)OCC1c2ccccc2-c2ccccc21)C(=O)N[C@@H](Cc1c[nH]c2ccccc12)C(=O)N[C@H](Cc1ccccc1)C(=O)N1CCC[C@@H]1C(N)=O [(KFmoc)Wfp-NH2] (Fmoc-KW[dF][dP]-NH2) | 30 µg/mL (≈ 37.6 µM) | 7 µg/mL (≈ 8.77 µM) | 6 µg/mL (≈ 7.52 µM) | 347 µg/mL (≈ 435 µM) | 65 µg/mL | – | – | – | – | –
(KFmoc)Wf(aABA)-NH2 | – | – | – | – | – | 241 μg/m | 21 μg/m | 6 μg/m | 7 μg/m | 72 μg/m
NCCCC[C@H](NC(=O)OCC1c2ccccc2-c2ccccc21)C(=O)N[C@@H](Cc1c[nH]c2ccccc12)C(=O)N[C@@H](CCCCN)C(=O)N[C@H](CO)C(N)=O [(KFmoc)WKs-NH2] (Fmoc-KWK[dS]-NH2) | 57 µg/mL (≈ 74.1 µM) | 6 µg/mL (≈ 7.8 µM) | 6 µg/mL (≈ 7.8 µM) | 214 µg/mL (≈ 278 µM) | 296 µg/mL | – | – | – | – | –
NCCCC[C@H](NC(=O)OCC1c2ccccc2-c2ccccc21)C(=O)N[C@@H](Cc1c[nH]c2ccccc12)C(=O)N[C@@H](Cc1ccc(O)cc1)C(=O)N1CCC[C@@H]1C(N)=O [(KFmoc)WYp-NH2] (Fmoc-KWY[dP]-NH2) | 84 µg/mL (≈ 103 µM) | 5 µg/mL (≈ 6.14 µM) | 5 µg/mL (≈ 6.14 µM) | 165 µg/mL (≈ 203 µM) | 76 µg/mL | – | – | – | – | –
C[C@@H](NC(=O)[C@H](CCCCN)NC(=O)[C@H](Cc1c[nH]c2ccccc12)NC(=O)[C@H](CCCCN)NC(=O)OCC1c2ccccc2-c2ccccc21)C(N)=O [(KFmoc)WKa-NH2] (Fmoc-KWK[dA]-NH2) | 60 µg/mL (≈ 79.7 µM) | 7 µg/mL (≈ 9.3 µM) | 8 µg/mL (≈ 10.6 µM) | 200 µg/mL (≈ 266 µM) | 437 µg/mL | – | – | – | – | –
N=C(N)NCCC[C@@H](NC(=O)[C@@H](Cc1ccccc1)NC(=O)[C@H](Cc1c[nH]c2ccccc12)NC(=O)[C@H](CCCCN)NC(=O)OCC1c2ccccc2-c2ccccc21)C(N)=O [(KFmoc)Wfr-NH2] (Fmoc-KW[dF][dR]-NH2) | 15 µg/mL (≈ 17.5 µM) | 2 µg/mL (≈ 2.33 µM) | 2 µg/mL (≈ 2.33 µM) | 42 µg/mL (≈ 49 µM) | 42 µg/mL | – | – | – | – | –
NCCCC[C@H](NC(=O)OCC1c2ccccc2-c2ccccc21)C(=O)N[C@@H](Cc1c[nH]c2ccccc12)C(=O)N[C@@H](CCCCN)C(=O)N[C@H](CCC(N)=O)C(N)=O [(KFmoc)WKq-NH2] (Fmoc-KWK[dQ]-NH2) | 57 µg/mL (≈ 70.4 µM) | 7 µg/mL (≈ 8.64 µM) | 7 µg/mL (≈ 8.64 µM) | 291 µg/mL (≈ 359 µM) | 483 µg/mL | – | – | – | – | –
CC(C)C[C@@H](NC(=O)[C@H](CCCCN)NC(=O)[C@H](Cc1c[nH]c2ccccc12)NC(=O)[C@H](CCCCN)NC(=O)OCC1c2ccccc2-c2ccccc21)C(N)=O [(KFmoc)WKl-NH2] (Fmoc-KWK[dL]-NH2) | 20 µg/mL (≈ 25.2 µM) | 5 µg/mL (≈ 6.29 µM) | 5 µg/mL (≈ 6.29 µM) | 121 µg/mL (≈ 152 µM) | 166 µg/mL | – | – | – | – | –
(KFmoc)WK(Hyp)-NH2 | 62 µg/mL | 10 µg/mL | 10 µg/mL | 370 µg/mL | – | – | – | – | – | –
(KFmoc)Wf(aAIB)-NH2 | – | – | – | – | – | 383 μg/m | 27 μg/m | 4 μg/m | 4 μg/m | 62 μg/m
CSCC[C@@H](NC(=O)[C@H](CCCCN)NC(=O)[C@H](Cc1c[nH]c2ccccc12)NC(=O)[C@H](CCCCN)NC(=O)OCC1c2ccccc2-c2ccccc21)C(N)=O [(KFmoc)WKm-NH2] (Fmoc-KWK[dM]-NH2) | 41 µg/mL (≈ 50.4 µM) | 7 µg/mL (≈ 8.61 µM) | 7 µg/mL (≈ 8.61 µM) | 163 µg/mL (≈ 200 µM) | 178 µg/mL | – | – | – | – | –
N=C(N)NCCC[C@@H](NC(=O)[C@H](Cc1ccc(O)cc1)NC(=O)[C@H](Cc1c[nH]c2ccccc12)NC(=O)[C@H](CCCCN)NC(=O)OCC1c2ccccc2-c2ccccc21)C(N)=O [(KFmoc)WYr-NH2] (Fmoc-KWY[dR]-NH2) | 16 µg/mL (≈ 18.3 µM) | 4 µg/mL (≈ 4.58 µM) | 4 µg/mL (≈ 4.58 µM) | 109 µg/mL (≈ 125 µM) | 31 µg/mL | – | – | – | – | –
(KFmoc)WK(Cys[ACM])-NH2 | 49 µg/mL | 11 µg/mL | 11 µg/mL | 303 µg/mL | – | – | – | – | – | –
NCCCC[C@H](NC(=O)OCC1c2ccccc2-c2ccccc21)C(=O)N[C@@H](Cc1c[nH]c2ccccc12)C(=O)N[C@@H](CCCCN)C(=O)N1CCC[C@@H]1C(N)=O [(KFmoc)WKp-NH2] (Fmoc-KWK[dP]-NH2) | 39 µg/mL (≈ 50.1 µM) | 8 µg/mL (≈ 10.3 µM) | 5 µg/mL (≈ 6.42 µM) | 251 µg/mL (≈ 322 µM) | 437 µg/mL | – | – | – | – | –
(KFmoc)ci(Thiopro)-NH2 | – | – | – | – | – | – | 25 μg/m | 9 μg/m | 6 μg/m | 197 μg/m
(KFmoc)ci(dOrn)-NH2 | – | – | – | – | 77 µg/mL | – | 20 μg/m | 4 μg/m | 2 μg/m | 121 μg/m
N=C(N)NCCC[C@@H](NC(=O)[C@H](CCCCN)NC(=O)[C@H](Cc1c[nH]c2ccccc12)NC(=O)[C@H](CCCCN)NC(=O)OCC1c2ccccc2-c2ccccc21)C(N)=O [(KFmoc)WKr-NH2] (Fmoc-KWK[dR]-NH2) | 66 µg/mL (≈ 78.8 µM) | 7 µg/mL (≈ 8.35 µM) | 5 µg/mL (≈ 5.97 µM) | 98 µg/mL (≈ 117 µM) | 324 µg/mL | – | – | – | – | –
NCCCC[C@H](NC(=O)OCC1c2ccccc2-c2ccccc21)C(=O)N[C@@H](Cc1c[nH]c2ccccc12)C(=O)N[C@@H](CCCCN)C(=O)N[C@H](Cc1c[nH]cn1)C(N)=O [(KFmoc)WKh-NH2] (Fmoc-KWK[dH]-NH2) | 52 µg/mL (≈ 63.5 µM) | 6 µg/mL (≈ 7.33 µM) | 6 µg/mL (≈ 7.33 µM) | 156 µg/mL (≈ 190 µM) | 313 µg/mL | – | – | – | – | –
C[C@@H](NC(=O)[C@H](Cc1ccc(O)cc1)NC(=O)[C@H](Cc1c[nH]c2ccccc12)NC(=O)[C@H](CCCCN)NC(=O)OCC1c2ccccc2-c2ccccc21)C(N)=O [(KFmoc)WYa-NH2] (Fmoc-KWY[dA]-NH2) | 87 µg/mL (≈ 110 µM) | 5 µg/mL (≈ 6.35 µM) | 5 µg/mL (≈ 6.35 µM) | 249 µg/mL (≈ 316 µM) | 74 µg/mL | – | – | – | – | –
(KFmoc)WK(KCBZ)-NH2 | – | 9 µg/mL | 9 µg/mL | 161 µg/mL | – | – | – | – | – | –
(KFmoc)Wf(Hyp)-NH2 | – | – | – | – | – | 37 μg/m | 44 μg/m | 5 μg/m | 8 μg/m | 95 μg/m
(KFmoc)Wf(KCBZ)-NH2 | – | – | – | – | – | 52 μg/m | 28 μg/m | 3 μg/m | 4 μg/m | 58 μg/m
C[C@H](O)[C@@H](NC(=O)[C@H](Cc1ccc(O)cc1)NC(=O)[C@H](Cc1c[nH]c2ccccc12)NC(=O)[C@H](CCCCN)NC(=O)OCC1c2ccccc2-c2ccccc21)C(N)=O [(KFmoc)WYt-NH2] (Fmoc-KWY[dT]-NH2) | 81 µg/mL (≈ 99 µM) | 9 µg/mL (≈ 11 µM) | 8 µg/mL (≈ 9.78 µM) | 161 µg/mL (≈ 197 µM) | 37 µg/mL | – | – | – | – | –
NCCCC[C@H](NC(=O)OCC1c2ccccc2-c2ccccc21)C(=O)N[C@@H](Cc1c[nH]c2ccccc12)C(=O)N[C@@H](CCCCN)C(=O)N[C@H](Cc1ccccc1)C(N)=O [(KFmoc)WKf-NH2] (Fmoc-KWK[dF]-NH2) | 38 µg/mL (≈ 45.8 µM) | 10 µg/mL (≈ 12.1 µM) | 6 µg/mL (≈ 7.24 µM) | 133 µg/mL (≈ 160 µM) | 126 µg/mL | – | – | – | – | –
NCCCC[C@H](NC(=O)OCC1c2ccccc2-c2ccccc21)C(=O)N[C@@H](Cc1c[nH]c2ccccc12)C(=O)N[C@@H](CCCCN)C(=O)N[C@H](CCCCN)C(N)=O [(KFmoc)WKk-NH2] (Fmoc-KWK[dK]-NH2) | – | 8 µg/mL (≈ 9.88 µM) | 7 µg/mL (≈ 8.64 µM) | 126 µg/mL (≈ 156 µM) | – | – | – | – | – | –
(KFmoc)WY(KCBZ)-NH2 | – | – | – | – | – | – | 59 μg/m | 9 μg/m | 9 μg/m | 309 μg/m
CC[C@@H](C)[C@@H](NC(=O)[C@@H](CS)NC(=O)[C@H](CCCCN)NC(=O)OCC1c2ccccc2-c2ccccc21)C(=O)N[C@H](Cc1ccccc1)C(N)=O [(KFmoc)cif-NH2] (Fmoc-K[dC][dI][dF]-NH2) | – | 21 µg/mL (≈ 28.7 µM) | – | 218 µg/mL (≈ 298 µM) | – | – | – | – | – | –
